Test results reported in US7026344B2, “Treating sickle cell disease” (priority 2000, dated 2006).

Tested on: human γ (Huγ) mRNA in K562 cells
Test: γ globin mRNA induction in K562 cells by RNase protection assay
Type: cell-based
Settings: K562
Method: Cell Culture. K562 cells were grown in suspension cultures in RPMI-1640 containing 10% fetal bovine serum, penicillin (100 U/ml) and streptomycin (0.1 mg/ml in a humidified incubator at 37° C. in a 5%CO2/95% air atmosphere. The following experimental conditions were analyzed in triplicate with 2×10^6 cells per well: an untreated control, ZL dissolved in 0.1% dimethylsulfoximide (DMSO) at final concentrations of […], HU at […] and two positive controls hemin (50 mM) and sodium butyrate (NB) 2 mM. The K562 cells were induced for 72 hours then RNA isolated for further analysis. Cell viability was completed by 2% trypan blue exclusion at timnes 0 and 72 hours.
RNA Isolation. RNA was isolated using RNA Stat-60 (TEL-TEST “B”, Inc., Friendswood, Tex.) according to the manufacturer's instructions. In brief, cell pellets will be suspended in RNA Stat-60 (1 ml) and chloroform (200 μl), and the RNA extracted and precipitated with isopropanol.
RNase Protection Analysis. MRNA levels will be quantitated by RNase protection assay (RPA) with probes designed to yield protected fragments for human γ (Huγ)and the internal control glyceraldehydes-3-phosphate dehydrogenase (GAPD). Huγ mRNA levels were normalized to that of GAPD and compared to the untreated K562 cells. (Zar: Statistical Analysis, Englewood)
Several pharmacological hemoglobin F inducers such as HU, 5-azacytidine, erythropoietin, didox, and butyrate alter γ gene expression in culture. The induction of γ gene activity in culture is a good indicator of potential clinical usefulness. Therefore the capability of ZL to induce γ gene activity at the mRNA level was tested. K562 cells were cultured in ZL from 0 to 100 μM or HU (50μ to 100 μM) for 48 hours. Total cellular RNA was analyzed by RPA for γ mRNA levels. An increase in γ mRNA for ZL at 20 μM with a maximal response at 75 μM (FIG. 4A) was observed. The level of γ gene mRNA synthesis was quantitated relative to the internal control, CAPD. […] K562 cell viability was decreased 10% when measured using trypan blue exclusion at 75 μM and 100 μM concentrations for both ZL and HU. The level of γ gene induction was 3.9 fold and 10-fold for the positive controls NB and hemin, respectively.

Compound | level of γ gene induction (positive control NB 2 mM) [fold] | level of γ gene induction (positive control hemin (50 µM)) [fold]
CCCC(=O)[O-].[Na+] [NB, sodium butyrate] | 3.9 | 
hemin |  | 10
